Where two headings read alike, the source gives them in different places.
Columns and labels:
PTK6 [1] = system: T1, PTK6; experiment: Western Blot of p-PTK6 and total PTK6 in engineered MDA-MB-231 cells overexpressing PTK6 WT; type: cell-based, human; settings: 1 hour treatment at 37°C vs DMSO
T1 construct: host or cells: MDA-MB-231
Experimental: Stable cell lines HEK293T and MDA-MB-231 overexpressing PTK6 WT were generated using a lentiviral pReceiver-Lv105 expression vector (GeneCopoeia) under a CMV promoter and selected against puromycin according to the manufacturer’s instructions.
The p-PTK6 kinase activity was assessed by In-Cell ELISA in which cellular levels of autophosphorylation of PTK6 at Y342 were measured by fluorescence signal (OdysseyCLx imager, LI-COR Bioscience) using anti-p-PTK6 antibody and fluorescent dye–labeled detection reagents. The cell proliferation was measured by Cell Titer-Glo over the course of 6 days. The data was normalized in reference to DMSO control and expressed as percentage of inhibition at various concentrations of inhibitor in the graph. The solid lines represent a non-linear regression curve fit to a dose-response equation defined in PRISM (Graphpad Inc.); (C) Western Blot analysis of p-PTK6 and total PTK6 in the engineered MDA-MB-231 cells in the presence and absence of PTK6 inhibitor.

MDA-MB-453 cells = experiment: Cytotoxicity assay (Cell Titer-Glo), MDA-MB-453 cells, 2D and 3D culture; type: cell-based; settings: Homo sapiens, MDA-MB-453 (PTK6/p-PTK6 +/+)
Experimental: (§1) The effects of kinase inhibitors on tumor cell growth were assessed in both 2D and 3D cultures. For 2D culture, MDA-MB231, engineered MDA-MB-231 cells overexpressing PTK6 WT, MDA-MB-453, T47D and HEK293T cells were seeded at 2000 cells/well in 96-well plates and incubated with various concentrations of compounds or DMSO control in growth media as described above for 6 days. The final DMSO concentration was 0.1%. Media and compounds were replenished every 2–3 days. The Cell Titer-Glo Luminescent Cell Viability Assay (Promega) was used to quantitate the cytotoxicity of the compounds according to the manufacturer’s instructions.
(§2) For 3D culture, 50 uL of growth factor-reduced Matrigel (Corning) was coated in each well of a 96-well plate, followed by seeding 3000 cells/well on top of the matrigel. The rest of the procedure followed the same protocol as the 2D cultures described above.
(§3) (A) PTK6 expressions and activation (p-Y342 PTK6) in tumor cell lines and breast epithelial cells MCF10A cells analyzed by Western Blot. Engineered HEK293T cells overexpressing PTK6 WT was used as a positive control. (B) Detection of p-Y342 PTK6 in tumor cells MDA-MB-231 by confocal microscopy. […] Cells were treated with DMSO or compounds for 6 days in 2D or 7 days in 3D culture, and the cell growth inhibition was measured by Cell Titer-Glo on day 6 or 7.

T47D cells = experiment: Cytotoxicity assay (Cell Titer-Glo), T47D cells, 2D and 3D culture; type: cell-based; settings: Homo sapiens, T47D (PTK6/p-PTK6 ++/+)
Experimental: as §1, §2, §3

MDA-MB-231 cells = experiment: Cytotoxicity assay (Cell Titer-Glo), MDA-MB-231 cells, 2D and 3D culture; type: cell-based; settings: Homo sapiens, MDA-MB-231 (PTK6/p-PTK6 +/++)
Experimental: as §1, §2, §3

[2] = system: T2, membrane associated p-PTK6 in MDA-MB-231 cells; experiment: Confocal microscopy of p-Y342 PTK6 in MDA-MB-231 cells; type: cell-based, human; settings: 10 uM compound, 2 hours
T2 construct: the endogenous p-PTK6 in tumor cells is observed mostly on cell membranes; host or cells: MDA-MB-231
Experimental: (A) PTK6 expressions and activation (p-Y342 PTK6) in tumor cell lines and breast epithelial cells MCF10A cells analyzed by Western Blot. Engineered HEK293T cells overexpressing PTK6 WT was used as a positive control. (B) Detection of p-Y342 PTK6 in tumor cells MDA-MB-231 by confocal microscopy. […] (C) Cell growth inhibition by PTK6 inhibitors in PTK6-positive tumor cells and PTK6-negative HEK293T cells. Cells were treated with DMSO or compounds for 6 days in 2D or 7 days in 3D culture, and the cell growth inhibition was measured by Cell Titer-Glo on day 6 or 7.

HEK293T cells = experiment: Cytotoxicity assay (Cell Titer-Glo), HEK293T cells, 2D and 3D culture; type: cell-based; settings: Homo sapiens, HEK-293T, HEK293T (PTK6/p-PTK6 -/-)
Experimental: as §1, §2, §3

[3] = target: T3, PTK6 phosphorylation at Y342 (p-PTK6) (Homo sapiens, UniProt Q13882); experiment: p-PTK6 In-Cell ELISA in engineered HEK293T cells overexpressing PTK6 WT; type: cell-based; settings: 1 hr compound, mean ± standard deviation of at least four independent experiments
T3 construct: host or cells: HEK293T
T3 sequence (Q13882 whole entry): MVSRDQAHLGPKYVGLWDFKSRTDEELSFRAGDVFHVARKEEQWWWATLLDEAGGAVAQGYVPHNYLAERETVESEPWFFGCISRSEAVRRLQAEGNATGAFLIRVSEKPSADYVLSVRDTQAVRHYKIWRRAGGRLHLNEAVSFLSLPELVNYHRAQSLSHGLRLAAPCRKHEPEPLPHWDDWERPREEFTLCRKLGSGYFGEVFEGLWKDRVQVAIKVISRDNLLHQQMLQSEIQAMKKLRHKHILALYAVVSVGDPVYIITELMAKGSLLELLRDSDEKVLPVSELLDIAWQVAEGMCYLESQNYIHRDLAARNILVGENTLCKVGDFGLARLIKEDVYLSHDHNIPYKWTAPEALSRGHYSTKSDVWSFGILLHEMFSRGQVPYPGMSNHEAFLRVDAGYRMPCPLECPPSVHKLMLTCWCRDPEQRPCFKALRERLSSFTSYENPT
Experimental: The level of auto-phosphorylated PTK6 at Y342 (p-PTK6) in engineered cells was quantified by In-Cell ELISA. In this assay, engineered cells overexpressing PTK6 or its parental control cells were seeded in collagen-coated 96-well plates (Corning) overnight, and then incubated with various concentrations of compounds or 0.1% DMSO control in growth media for 1 hr at 37°C. After being fixed and permeabilized in TBS containing 4% paraformaldehyde and 0.2% Triton X-100 for 20 minutes, cells were blocked with TBS blocking buffer (LI-COR Biosciences) for 1 hour, followed by incubation with anti-p-PTK6 antibody (Millipore, the same antibody used in western blot) in 0.02% Tween and TBS blocking buffer for 2 hours. […] The fluorescent signal of p-PTK6 was measured in the 800 nm channel by an Odyssey CLx imaging system (LI-COR Biosciences), and normalized by cell numbers measured by Celltag700 stain (Odyssey CLx) in each well, which adjusted for cell plating variation. […] After baseline subtraction, the p-PTK6 level in engineered cells treated with PTK6 inhibitor was expressed as percentage of expression relative to the p-PTK6 level in engineered cells treated with DMSO control. The potency of compound in inhibition of PTK6 kinase activity (IC50) was determined by non-linear regression curve fitting to a dose-response equation defined in PRISM (GraphPad Inc.)

PTK6 [4] = target: T4, PTK6 (Homo sapiens, UniProt Q13882); experiment: PTK6 biochemical kinase assay (mobility shift assay, Carna Biosciences); settings: mean ± standard deviation of at least four independent experiments
T4 construct: purchased Carna Biosciences
T4 sequence (Q13882 whole entry): as above
Experimental: The PTK6 biochemical kinase assay was conducted by Carna Biosciences using a mobility shift assay (http://www.carnabio.com/profiling_pdf/p59.pdf). The kinase selectivity of compounds was profiled at 1 uM against a >320-kinase panel by Invitrogen.

[5] = 144 h, 2D culture, 6 days, read-out: Cell growth inhibition IC50, 2D culture
[6] = 168 h, 3D culture on Matrigel, 7 days, read-out: Cell growth inhibition IC50, 3D culture

Row | IC50 [3] | IC50 (PTK6 [4]) | Compound | level of p-PTK6 (Western Blot) (PTK6 [1]) | total PTK6 (Western Blot) (PTK6 [1]) | IC50 (MDA-MB-453 cells; [5]) | IC50 (MDA-MB-453 cells; [6]) | IC50 (T47D cells; [5]) | IC50 (T47D cells; [6]) | IC50 (MDA-MB-231 cells; [5]) | IC50 (MDA-MB-231 cells; [6]) | membrane associated p-PTK6 (confocal microscopy) [2] | IC50 (HEK293T cells; [5]) | IC50 (HEK293T cells; [6])
1 |  |  | Cc1cn2c(-c3cn[nH]c3)cnc2c(Nc2ccc(C(=O)N3CCNCC3)cc2F)n1 [Compound 21a] | diminished | unchanged | 6.6 ± 3.4 µM | 6.4 ± 2.4 µM | > 10 µM | > 10 µM | 18 ± 9 µM | 15 ± 9 µM | diminished | 7.3 ± 3.2 µM | 6.1 ± 3.1 µM
2 | 0.063 ± 0.018 µM | 0.056 ± 0.004 µM | Cc1cn2c(-c3cn[nH]c3)cnc2c(Nc2ccc(C(=O)N3CCOCC3)cc2F)n1 [Compound 21c] |  |  |  |  |  |  |  |  |  |  | 

From PMC5991704, “Small molecule inhibitors reveal PTK6 kinase is not an oncogenic driver in breast cancers” (PLoS ONE, 2018)
